Source: publication PMC6748860, “High-resolution crystal structures of a myxobacterial phytochrome at cryo and room temperatures” (Structural Dynamics, 2019)

How the values were obtained:
SaBphP2 PCM [1] = biological target: T1, SaBphP2 PCM (Allostigmatella aurantiaca, UniProt Q09E27, H275T); assay: X-ray crystal structure ([…] Å, […] K); format: binding; conditions: covalent (thioether to Cys13); Pr state, dark; chromophore
T1 construct: gene STIAU_8420; photosensory core module PAS-GAF-PHY, residues 1-497, histidine kinase domain removed; homodimer; BV on Cys13
T1 sequence (Q09E27 entry or part of it H275T): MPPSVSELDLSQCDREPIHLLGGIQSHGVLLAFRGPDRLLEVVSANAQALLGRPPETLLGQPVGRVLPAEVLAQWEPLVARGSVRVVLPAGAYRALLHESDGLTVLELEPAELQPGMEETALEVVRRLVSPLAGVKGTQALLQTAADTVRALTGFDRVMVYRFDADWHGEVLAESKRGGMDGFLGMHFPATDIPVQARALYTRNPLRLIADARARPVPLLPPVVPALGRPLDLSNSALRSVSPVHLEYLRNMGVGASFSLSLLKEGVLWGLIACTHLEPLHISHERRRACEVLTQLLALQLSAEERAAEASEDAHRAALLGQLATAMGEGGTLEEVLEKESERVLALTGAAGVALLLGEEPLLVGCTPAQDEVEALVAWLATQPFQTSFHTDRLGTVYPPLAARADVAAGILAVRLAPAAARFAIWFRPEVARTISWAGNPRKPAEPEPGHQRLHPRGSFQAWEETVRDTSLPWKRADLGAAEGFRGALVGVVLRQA

SaBphP2 PCM [2] = biological target: T2, SaBphP2 PCM (Allostigmatella aurantiaca, UniProt Q09E27); assay: X-ray crystal structure ([…] Å, […] K; SFX […] Å, […] K); format: binding; conditions: covalent (thioether to Cys13); Pr state, dark; chromophore
T2 construct: gene STIAU_8420; photosensory core module PAS-GAF-PHY, residues 1-497, histidine kinase domain removed; homodimer; BV on Cys13
T2 sequence (Q09E27 entry or part of it): as the sequence (Q09E27 entry or part of it H275T) above, with T275H counted along it

With C=CC1=C(C)C(=Cc2[nH]c(C=C3N=C(C=C4NC(=O)C(C)=C4C=C)C(C)=C3CCC(=O)O)c(CCC(=O)O)c2C)NC1=O [biliverdin] the “X-ray crystal structure (2.2 Å, 100 K)” value (SaBphP2 PCM [1]) was “The cryostructure of the His275Thr mutant is essentially identical to that of the wild-type” and the “X-ray crystal structure (1.65 Å, 100 K; SFX 2.1 Å, 293 K)” value (SaBphP2 PCM [2]) was “The BV chromophore is bound to Cys13 close to the N-terminus”.
